Results from PubChem BioAssay (NCI).
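The compound was tested at five concentrations on cells cultured in 96-well plates, with a 48-hour exposure period. GI50 is the concentration that inhibits growth by half. TGI marks complete inhibition of growth.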

Legend:
Assay in all cases: growth of human tumour cells (NCI), 48 h
[1] = tested on: 786-0 renal
[2] = tested on: A549 NSCLC
[3] = tested on: ACHN renal
[4] = tested on: BT-549 breast
[5] = tested on: CAKI-1 renal
[6] = tested on: CCRF-CEM leukemia
[7] = tested on: COLO 205 colon
[8] = tested on: DU-145 prostate
[9] = tested on: EKVX NSCLC
[10] = tested on: HCC-2998 colon
[11] = tested on: HCT-15 colon
[12] = tested on: HOP-62 NSCLC
[13] = tested on: HOP-92 NSCLC
[14] = tested on: HT29 colon
[15] = tested on: IGROV1 ovarian
[16] = tested on: K-562 leukemia
[17] = tested on: KM12 colon
[18] = tested on: LOX IMVI melanoma
[19] = tested on: M14 melanoma
[20] = tested on: MALME-3M melanoma
[21] = tested on: MCF7 breast
[22] = tested on: MDA-MB-231 breast
[23] = tested on: MDA-MB-435
[24] = tested on: MOLT-4 leukemia
[25] = tested on: NCI-H226 lung
[26] = tested on: NCI-H23 lung
[27] = tested on: NCI-H460 lung
[28] = tested on: NCI-H522 lung
[29] = tested on: NCI/ADR-RES ovarian
[30] = tested on: OVCAR-3 ovarian
[31] = tested on: OVCAR-4 ovarian
[32] = tested on: OVCAR-5 ovarian
[33] = tested on: OVCAR-8 ovarian
[34] = tested on: PC-3 prostate
[35] = tested on: RPMI-8226 leukemia
[36] = tested on: RXF 393 renal
[37] = tested on: SF-268 CNS
[38] = tested on: SF-295 CNS
[39] = tested on: SF-539 CNS
[40] = tested on: SK-MEL-2 melanoma
[41] = tested on: SK-MEL-28 melanoma
[42] = tested on: SK-OV-3 ovarian
[43] = tested on: SN12C renal
[44] = tested on: SNB-19 CNS
[45] = tested on: SNB-75 CNS
[46] = tested on: SR leukemia
[47] = tested on: SW-620 colon
[48] = tested on: T-47D breast
[49] = tested on: TK-10 renal
[50] = tested on: U251 CNS
[51] = tested on: UACC-257 melanoma
[52] = tested on: UACC-62 melanoma
[53] = tested on: UO-31 renal

CCCCCCCCCN=C(N)c1ccc(N2CCN(c3ccc(C(N)=NCCCCCCCCC)cc3)CC2)cc1
GI50 [1]: 3.4 µM
TGI [1]: > 50 µM
GI50 [2]: 1.57 µM
TGI [2]: 10.5 µM
GI50 [3]: 2.19 µM
TGI [3]: 12.7 µM
GI50 [4]: 1.13 µM
TGI [4]: 2.71 µM
GI50 [5]: 1.86 µM
TGI [5]: 8.42 µM
GI50 [6]: 1.77 µM
TGI [6]: 8.34 µM
GI50 [7]: 1.78 µM
TGI [7]: 7.94 µM
GI50 [8]: 2.35 µM
TGI [8]: 8.06 µM
GI50 [9]: 1.95 µM
TGI [9]: 7.72 µM
GI50 [10]: 1.82 µM
TGI [10]: 6.14 µM
GI50 [11]: 2.05 µM
TGI [11]: 13.5 µM
GI50 [12]: 2.72 µM
TGI [12]: > 50 µM
GI50 [13]: 4.1 µM
TGI [13]: > 50 µM
GI50 [14]: 1.3 µM
TGI [14]: 7.4 µM
GI50 [15]: 1.66 µM
TGI [15]: > 50 µM
GI50 [16]: 1.72 µM
TGI [16]: 17 µM
GI50 [17]: 1.7 µM
TGI [17]: 5.67 µM
GI50 [18]: 2.1 µM
TGI [18]: 10.7 µM
GI50 [19]: 3.09 µM
TGI [19]: > 50 µM
GI50 [20]: 1.37 µM
TGI [20]: 3.74 µM
GI50 [21]: 0.704 µM
TGI [21]: 1.54 µM
GI50 [22]: 1.41 µM
TGI [22]: 5.59 µM
GI50 [23]: 1.74 µM
TGI [23]: 5.35 µM
GI50 [24]: 1.58 µM
TGI [24]: > 50 µM
GI50 [25]: 3.77 µM
TGI [25]: > 50 µM
GI50 [26]: 1.67 µM
TGI [26]: 6.37 µM
GI50 [27]: 1.61 µM
TGI [27]: 5.13 µM
GI50 [28]: 2.36 µM
TGI [28]: 21.4 µM
GI50 [29]: 3.56 µM
TGI [29]: > 50 µM
GI50 [30]: 1.1 µM
TGI [30]: 3.83 µM
GI50 [31]: 3.86 µM
TGI [31]: > 50 µM
GI50 [32]: 3.13 µM
TGI [32]: 11 µM
GI50 [33]: 1.62 µM
TGI [33]: 5.95 µM
GI50 [34]: 1.74 µM
TGI [34]: 5.87 µM
GI50 [35]: 1.96 µM
TGI [35]: > 50 µM
GI50 [36]: 1.04 µM
TGI [36]: 3.01 µM
GI50 [37]: 1.22 µM
TGI [37]: 4.04 µM
GI50 [38]: 1.24 µM
TGI [38]: 2.57 µM
GI50 [39]: 2 µM
TGI [39]: 4.48 µM
GI50 [40]: 2.88 µM
TGI [40]: > 50 µM
GI50 [41]: 1.6 µM
TGI [41]: 4.27 µM
GI50 [42]: 2.65 µM
TGI [42]: 33.1 µM
GI50 [43]: 1.52 µM
TGI [43]: 7.85 µM
GI50 [44]: 2.29 µM
TGI [44]: 15.8 µM
GI50 [45]: 1.1 µM
TGI [45]: 4.75 µM
GI50 [46]: 2.75 µM
TGI [46]: > 50 µM
GI50 [47]: 1.52 µM
TGI [47]: 3.55 µM
GI50 [48]: 2.44 µM
TGI [48]: 11.8 µM
GI50 [49]: 4.3 µM
TGI [49]: 14.7 µM
GI50 [50]: 0.518 µM
TGI [50]: 1.41 µM
GI50 [51]: 1.2 µM
TGI [51]: 3.08 µM
GI50 [52]: 2.45 µM
TGI [52]: 22.1 µM
GI50 [53]: 3.5 µM
TGI [53]: > 50 µM
